Results as given in ChEMBL document CHEMBL1201861, “Genomics of Drug Sensitity in Cancer screening data, Wellcome Trust Sanger Institute”.

How the values were obtained:
Assay in all cases: cells
Details in all cases: Homo sapiens
[1] = tested on: COR-L88; format: functional, cell-based;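 note: growth inhibition of COR-L88 cells, read out with a cell viability assay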
Description: SANGER: Inhibition of human COR-L88 cell growth in a cell viability assay.

[2] = tested on: CTB-1; format: functional, cell-based
Description: SANGER: Inhibition of human CTB-1 cell growth in a cell viability assay.

[3] = tested on: D283 Med; format: functional, cell-based
Description: SANGER: Inhibition of human D-283MED cell growth in a cell viability assay.

[4] = tested on: DB; format: functional, cell-based
Description: SANGER: Inhibition of human DB cell growth in a cell viability assay.

[5] = tested on: ES1; format: functional, cell-based;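 note: growth inhibition of ES1 cells, read out with a cell viability assay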
Description: SANGER: Inhibition of human ES1 cell growth in a cell viability assay.

[6] = tested on: ES3; format: functional, cell-based;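 note: growth inhibition of ES3 cells, read out with a cell viability assay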
Description: SANGER: Inhibition of human ES3 cell growth in a cell viability assay.

[7] = tested on: ES6; format: functional, cell-based;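 note: growth inhibition of human ES6 cells, read out with a cell viability assay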
Description: SANGER: Inhibition of human ES6 cell growth in a cell viability assay.

[8] = tested on: ES8; format: functional, cell-based;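 note: growth inhibition of human ES8 cells, read out with a cell viability assay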
Description: SANGER: Inhibition of human ES8 cell growth in a cell viability assay.

[9] = tested on: EW-13; format: functional, cell-based;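 note: growth inhibition of EW-13 cells, read out with a cell viability assay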
Description: SANGER: Inhibition of human EW-13 cell growth in a cell viability assay.

[10] = tested on: EW-16; format: functional, cell-based;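 note: growth inhibition of human EW-16 cells, read out as cell viability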
Description: SANGER: Inhibition of human EW-16 cell growth in a cell viability assay.

[11] = tested on: GB-1; format: functional, cell-based;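 note: growth of GB-1 cells judged by a viability assay, IC50 marks the concentration inhibiting growth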
Description: SANGER: Inhibition of human GB-1 cell growth in a cell viability assay.

[12] = tested on: GI-1; format: functional, cell-based;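 note: growth inhibition of human GI-1 cells, measured with a cell viability readout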
Description: SANGER: Inhibition of human GI-1 cell growth in a cell viability assay.

[13] = tested on: GR-ST; format: functional, cell-based
Description: SANGER: Inhibition of human GR-ST cell growth in a cell viability assay.

[14] = tested on: HCE-4; format: functional, cell-based;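 note: cell viability assay measuring inhibition of growth in the human HCE-4 cell line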
Description: SANGER: Inhibition of human HCE-4 cell growth in a cell viability assay.

[15] = tested on: HDLM-2; format: functional, cell-based;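 note: cell viability assay measuring suppression of HDLM-2 proliferation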
Description: SANGER: Inhibition of human HDLM-2 cell growth in a cell viability assay.

[16] = tested on: HEL; format: functional, cell-based;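 note: growth inhibition of HEL cells, read out with a cell viability assay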
Description: SANGER: Inhibition of human HEL cell growth in a cell viability assay.

[17] = tested on: J-RT3-T3-5; format: functional, cell-based;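 note: cell viability assay measuring growth inhibition of human J-RT3-T3-5 cells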
Description: SANGER: Inhibition of human J-RT3-T3-5 cell growth in a cell viability assay.

[18] = tested on: JAR; format: functional, cell-based;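 note: growth inhibition of human JAR cells determined with a cell viability assay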
Description: SANGER: Inhibition of human JAR cell growth in a cell viability assay.

[19] = tested on: JVM-3; format: functional, cell-based;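 note: growth inhibition of human JVM-3 cells, read out with a cell viability assay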
Description: SANGER: Inhibition of human JVM-3 cell growth in a cell viability assay.

[20] = tested on: K5; format: functional, cell-based
Description: SANGER: Inhibition of human K5 cell growth in a cell viability assay.

[21] = tested on: KG-1; format: functional, cell-based;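 note: growth inhibition of KG-1 cells, read out by a cell viability assay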
Description: SANGER: Inhibition of human KG-1 cell growth in a cell viability assay.

[22] = tested on: KGN; format: functional, cell-based;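 note: growth inhibition of KGN cells, read out with a cell viability assay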
Description: SANGER: Inhibition of human KGN cell growth in a cell viability assay.

[23] = tested on: KM12; format: functional, cell-based;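 note: KM12 cell growth inhibition, read out with a cell viability assay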
Description: SANGER: Inhibition of human KM12 cell growth in a cell viability assay.

[24] = tested on: KP-N-YS; format: functional, cell-based;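 note: cell viability assay measuring inhibition of cell line growth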
Description: SANGER: Inhibition of human KP-N-YS cell growth in a cell viability assay.

[25] = tested on: LB1047-RCC; format: functional, cell-based;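 note: inhibition of cell growth, determined with a cell viability assay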
Description: SANGER: Inhibition of human LB1047-RCC cell growth in a cell viability assay.

[26] = tested on: LB771-HNC; format: functional, cell-based;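 note: growth inhibition of LB771-HNC human cells, read out with a cell viability assay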
Description: SANGER: Inhibition of human LB771-HNC cell growth in a cell viability assay.

[27] = tested on: LB831-BLC; format: functional, cell-based;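 note: growth inhibition of LB831-BLC cells, read out with a cell viability assay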
Description: SANGER: Inhibition of human LB831-BLC cell growth in a cell viability assay.

[28] = tested on: LOX IMVI; format: functional, cell-based
Description: SANGER: Inhibition of human LOXIMVI cell growth in a cell viability assay.

[29] = tested on: LS-411N; format: functional, cell-based
[30] = tested on: MFH-ino; format: functional, cell-based;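 note: growth inhibition of human MFH-ino cells, read out by a cell viability assay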
Description: SANGER: Inhibition of human MFH-ino cell growth in a cell viability assay.

[31] = tested on: MOLT-16; format: functional, cell-based;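 note: growth inhibition of human MOLT-16 cells, read out with a cell viability assay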
Description: SANGER: Inhibition of human MOLT-16 cell growth in a cell viability assay.

[32] = tested on: MOLT-4; format: functional, cell-based;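 note: growth inhibition of MOLT-4 cells, determined with a cell viability readout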
Description: SANGER: Inhibition of human MOLT-4 cell growth in a cell viability assay.

[33] = tested on: MS-1; format: functional, cell-based;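 note: growth inhibition of MS-1 cells, read out by cell viability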
Description: SANGER: Inhibition of human MS-1 cell growth in a cell viability assay.

[34] = tested on: MV4-11; format: functional, cell-based, MV-4-11;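 note: cell viability readout measuring growth inhibition of human MV-4-11 cells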
Description: SANGER: Inhibition of human MV-4-11 cell growth in a cell viability assay.

[35] = tested on: MZ1-PC; format: functional, cell-based;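 note: cell viability assay measuring growth inhibition of human MZ1-PC cells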
Description: SANGER: Inhibition of human MZ1-PC cell growth in a cell viability assay.

[36] = tested on: MZ7-mel; format: functional, cell-based;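 note: growth inhibition of human MZ7-mel cells, measured by a cell viability assay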
Description: SANGER: Inhibition of human MZ7-mel cell growth in a cell viability assay.

[37] = tested on: NB69; format: functional, cell-based;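 note: growth inhibition of NB69 cells, determined by a cell viability assay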
Description: SANGER: Inhibition of human NB69 cell growth in a cell viability assay.

[38] = tested on: NCI-H1355; format: functional, cell-based;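 note: growth inhibition of human NCI-H1355 cells, read out by a cell viability assay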
Description: SANGER: Inhibition of human NCI-H1355 cell growth in a cell viability assay.

[39] = tested on: NCI-H1581; format: functional, cell-based;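 note: cell growth inhibition read out by a viability assay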
Description: SANGER: Inhibition of human NCI-H1581 cell growth in a cell viability assay.

[40] = tested on: NCI-H1648; format: functional, cell-based;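 note: cell viability assay measuring inhibition of NCI-H1648 cell growth, from the Sanger screening data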
Description: SANGER: Inhibition of human NCI-H1648 cell growth in a cell viability assay.

[41] = tested on: NCI-H1838; format: functional, cell-based;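 note: growth inhibition of NCI-H1838 cells, determined with a cell viability readout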
Description: SANGER: Inhibition of human NCI-H1838 cell growth in a cell viability assay.

[42] = tested on: NCI-H209; format: functional, cell-based;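 note: growth inhibition of human NCI-H209 cells, measured by a cell viability assay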
Description: SANGER: Inhibition of human NCI-H209 cell growth in a cell viability assay.

[43] = tested on: NCI-H526; format: functional, cell-based;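 note: growth inhibition of the human NCI-H526 cell line, measured by a cell viability assay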
Description: SANGER: Inhibition of human NCI-H526 cell growth in a cell viability assay.

[44] = tested on: NMC-G1; format: functional, cell-based;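 note: growth inhibition of the NMC-G1 cell line, measured with a cell viability read-out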
Description: SANGER: Inhibition of human NMC-G1 cell growth in a cell viability assay.

[45] = tested on: RKO; format: functional, cell-based;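 note: growth inhibition of human RKO cells, read out with a cell viability assay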
Description: SANGER: Inhibition of human RKO cell growth in a cell viability assay.

[46] = tested on: RPMI-8226; format: functional, cell-based
Description: SANGER: Inhibition of human RPMI-8226 cell growth in a cell viability assay.

[47] = tested on: SBC-1; format: functional, cell-based;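 note: cell viability assay measuring growth inhibition of the SBC-1 cell line, IC50 being the concentration that halves growth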
Description: SANGER: Inhibition of human SBC-1 cell growth in a cell viability assay.

[48] = tested on: SCC-15; format: functional, cell-based;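 note: growth inhibition of SCC-15 cells, read out with a cell viability assay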
Description: SANGER: Inhibition of human SCC-15 cell growth in a cell viability assay.

[49] = tested on: SK-MEL-1; format: functional, cell-based;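 note: growth inhibition of human SK-MEL-1 cells, read out by a cell viability assay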
Description: SANGER: Inhibition of human SK-MEL-1 cell growth in a cell viability assay.

[50] = tested on: SK-PN-DW; format: functional, cell-based;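 note: growth inhibition measured with a viability assay on these cells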
Description: SANGER: Inhibition of human SK-PN-DW cell growth in a cell viability assay.

[51] = tested on: SW 954; format: functional, cell-based;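 note: growth inhibition of SW954 human cancer cells, read out as cell viability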
Description: SANGER: Inhibition of human SW954 cell growth in a cell viability assay.

[52] = tested on: TE-1; format: functional, cell-based;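 note: growth inhibition of the human TE-1 cell line, read out with a cell viability assay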
Description: SANGER: Inhibition of human TE-1 cell growth in a cell viability assay.

[53] = tested on: 697; format: functional, cell-based
Description: SANGER: Inhibition of human 697 cell growth in a cell viability assay.

[54] = tested on: A388; format: functional, cell-based;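 note: growth inhibition of human A388 cells, read out with a cell viability assay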
Description: SANGER: Inhibition of human A388 cell growth in a cell viability assay.

[55] = tested on: A4-Fuk; format: functional, cell-based;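 note: growth inhibition of A4-Fuk cells, read out by a cell viability assay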
Description: SANGER: Inhibition of human A4-Fuk cell growth in a cell viability assay.

[56] = tested on: ACN; format: functional, cell-based;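 note: growth inhibition of the human ACN cell line, read out via cell viability testing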
Description: SANGER: Inhibition of human ACN cell growth in a cell viability assay.

[57] = tested on: BB49-HNC; format: functional, cell-based;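 note: cell viability assay read-out, reported as inhibition of BB49-HNC cell growth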
Description: SANGER: Inhibition of human BB49-HNC cell growth in a cell viability assay.

[58] = tested on: C2BBe1; format: functional, cell-based;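 note: growth inhibition of C2BBe1 cells, read out through a viability assay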
Description: SANGER: Inhibition of human C2BBe1 cell growth in a cell viability assay.

[59] = tested on: TE-11; format: functional, cell-based
Description: SANGER: Inhibition of human TE-11 cell growth in a cell viability assay.

[60] = tested on: TE-5; format: functional, cell-based
Description: SANGER: Inhibition of human TE-5 cell growth in a cell viability assay.

[61] = tested on: TE-6; format: functional, cell-based
Description: SANGER: Inhibition of human TE-6 cell growth in a cell viability assay.

[62] = tested on: TE-9; format: functional, cell-based
Description: SANGER: Inhibition of human TE-9 cell growth in a cell viability assay.

[63] = tested on: U-266; format: functional, cell-based
Description: SANGER: Inhibition of human U-266 cell growth in a cell viability assay.

[64] = tested on: CGTH-W-1; format: functional, cell-based
Description: SANGER: Inhibition of human CGTH-W-1 cell growth in a cell viability assay.

[65] = tested on: COLO-684; format: functional, cell-based
Description: SANGER: Inhibition of human COLO-684 cell growth in a cell viability assay.

CCCS(=O)(=O)Nc1ccc(F)c(C(=O)c2c[nH]c3ncc(Cl)cc23)c1F [PLX-4720]
IC50 [1]: > 10 µM | IC50 [2]: 3.4 µM | IC50 [3]: > 10 µM | IC50 [4]: > 10 µM | IC50 [5]: > 10 µM | IC50 [6]: > 10 µM | IC50 [7]: > 10 µM | IC50 [8]: > 10 µM | IC50 [9]: > 10 µM | IC50 [10]: > 10 µM | IC50 [11]: > 10 µM | IC50 [12]: > 10 µM | IC50 [13]: > 10 µM | IC50 [14]: > 10 µM | IC50 [15]: > 10 µM | IC50 [16]: > 10 µM | IC50 [17]: > 10 µM | IC50 [18]: > 10 µM | IC50 [19]: 9.57 µM | IC50 [20]: 0.761 µM | IC50 [21]: 4.74 µM | IC50 [22]: > 10 µM | IC50 [23]: > 10 µM | IC50 [24]: > 10 µM | IC50 [25]: > 10 µM | IC50 [26]: > 10 µM | IC50 [27]: > 10 µM | IC50 [28]: > 10 µM | IC50 [29]: > 10 µM | IC50 [30]: > 10 µM | IC50 [31]: > 10 µM | IC50 [32]: > 10 µM | IC50 [33]: > 10 µM | IC50 [34]: > 10 µM | IC50 [35]: > 10 µM | IC50 [36]: 1.15 µM | IC50 [37]: > 10 µM | IC50 [38]: > 10 µM | IC50 [39]: > 10 µM | IC50 [40]: > 10 µM | IC50 [41]: > 10 µM | IC50 [42]: 1.61 µM | IC50 [43]: > 10 µM | IC50 [44]: > 10 µM | IC50 [45]: > 10 µM | IC50 [46]: > 10 µM | IC50 [47]: > 10 µM | IC50 [48]: > 10 µM | IC50 [49]: > 10 µM | IC50 [50]: > 10 µM | IC50 [51]: > 10 µM | IC50 [52]: > 10 µM | IC50 [53]: 3.55 µM | IC50 [54]: > 10 µM | IC50 [55]: > 10 µM | IC50 [56]: 0.385 µM | IC50 [57]: > 10 µM | IC50 [58]: > 10 µM | IC50 [59]: > 10 µM | IC50 [60]: > 10 µM | IC50 [61]: > 10 µM | IC50 [62]: > 10 µM | IC50 [63]: > 10 µM | IC50 [64]: > 10 µM | IC50 [65]: > 10 µM

O=c1cc(N2CCOCC2)oc2c(-c3cccc4c3sc3ccccc34)cccc12
IC50 [2]: 1.12 µM | IC50 [3]: > 2 µM | IC50 [4]: > 2 µM | IC50 [5]: > 2 µM | IC50 [6]: > 2 µM | IC50 [7]: > 2 µM | IC50 [8]: > 2 µM | IC50 [9]: > 2 µM | IC50 [10]: > 2 µM | IC50 [11]: > 2 µM | IC50 [12]: > 2 µM | IC50 [13]: > 2 µM | IC50 [14]: > 2 µM | IC50 [15]: 0.323 µM | IC50 [16]: > 2 µM | IC50 [17]: > 2 µM | IC50 [18]: > 2 µM | IC50 [19]: > 2 µM | IC50 [20]: > 2 µM | IC50 [21]: > 2 µM | IC50 [22]: > 2 µM | IC50 [23]: > 2 µM | IC50 [24]: 1.14 µM | IC50 [25]: > 2 µM | IC50 [26]: > 2 µM | IC50 [27]: > 2 µM | IC50 [28]: > 2 µM | IC50 [29]: > 2 µM | IC50 [30]: > 2 µM | IC50 [31]: > 2 µM | IC50 [32]: > 2 µM | IC50 [33]: > 2 µM | IC50 [34]: > 2 µM | IC50 [35]: > 2 µM | IC50 [36]: > 2 µM | IC50 [37]: > 2 µM | IC50 [38]: > 2 µM | IC50 [39]: > 2 µM | IC50 [40]: > 2 µM | IC50 [41]: > 2 µM | IC50 [43]: 0.284 µM | IC50 [44]: > 2 µM | IC50 [45]: > 2 µM | IC50 [46]: > 2 µM | IC50 [48]: > 2 µM | IC50 [49]: 1.79 µM | IC50 [50]: > 2 µM | IC50 [51]: > 2 µM | IC50 [52]: > 2 µM | IC50 [53]: > 2 µM | IC50 [54]: > 2 µM | IC50 [55]: > 2 µM | IC50 [56]: > 2 µM | IC50 [57]: > 2 µM | IC50 [58]: > 2 µM | IC50 [59]: > 2 µM | IC50 [60]: > 2 µM | IC50 [61]: > 2 µM | IC50 [62]: > 2 µM | IC50 [63]: > 2 µM | IC50 [64]: > 2 µM | IC50 [65]: > 2 µM
